Like-named read-outs stand apart in the source and are kept apart here.
Target: T1, IKZF2 (Homo sapiens, UniProt Q96SW2+Q9UKS7)
T1 construct: CRISPR/Cas9—mediated insertion of the HiBiT peptide tag (Promega™) to the N-terminus of the IKZF2 gene locus; endogenous in cells; host or cells: MOLT4 cells, with CRISPR/Cas9 knock-in of HiBiT at the endogenous IKZF2 locus
Assay: HiBit-IKZF2 assay (HiBiT-Helios degradation in MOLT4 cells)
Type: cell-based
Conditions: for Dmax: 10 μM to 0.00026 μM; for DC50: concentration at which 50% of HiBiT-Helios degradation was achieved
Description: The HiBiT protein tagging system was applied to MOLT4 cells via a CRISPR/Cas9—mediated insertion of the HiBiT peptide tag (Promega™) to the N-terminus of the IKZF2 gene locus (Neon™ Transfection System). The resulting HiBiT-Helios stable cell line was treated with the following compounds in triplicates following a 13-point concentration scheme ranging from 10 μM to 0.00026 μM. At the indicated timepoints, the Nano-Glo® HiBiT Lytic Detection System (Promega™) was utilized for detecting bioluminescence of the HiBiT tag in treated cells: abundance of the tag is proportionate to the level of luminescence. Following normalization to DMSO, dose-response curves were plotted (GraphPad Prism) to determine the concentration points at which 50% of HiBiT-Helios degradation was achieved by each compound. The extent of degradation (range of luminescence) from the highest to lowest concentration points was calculated to determine the Dmax.

[1] = MOLT-4, extent of degradation from highest to lowest concentration, read-out: Dmax
[2] = extent of degradation from highest to lowest concentration

T1 sequence (Q9UKS7 whole entry): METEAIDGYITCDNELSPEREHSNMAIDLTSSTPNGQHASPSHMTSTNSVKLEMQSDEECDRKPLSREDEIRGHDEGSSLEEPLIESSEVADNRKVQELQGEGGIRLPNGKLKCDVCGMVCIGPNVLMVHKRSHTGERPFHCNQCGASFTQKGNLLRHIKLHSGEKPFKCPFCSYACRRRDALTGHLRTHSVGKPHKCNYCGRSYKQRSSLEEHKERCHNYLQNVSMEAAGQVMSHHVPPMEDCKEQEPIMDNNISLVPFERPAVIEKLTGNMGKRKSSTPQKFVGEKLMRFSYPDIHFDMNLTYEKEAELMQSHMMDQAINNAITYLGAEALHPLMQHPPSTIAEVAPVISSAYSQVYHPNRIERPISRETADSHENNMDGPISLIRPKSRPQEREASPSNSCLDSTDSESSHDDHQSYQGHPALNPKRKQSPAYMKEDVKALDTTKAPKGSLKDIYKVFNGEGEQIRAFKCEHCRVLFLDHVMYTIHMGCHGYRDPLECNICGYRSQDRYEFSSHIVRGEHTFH
T1 sequence (Q96SW2 whole entry): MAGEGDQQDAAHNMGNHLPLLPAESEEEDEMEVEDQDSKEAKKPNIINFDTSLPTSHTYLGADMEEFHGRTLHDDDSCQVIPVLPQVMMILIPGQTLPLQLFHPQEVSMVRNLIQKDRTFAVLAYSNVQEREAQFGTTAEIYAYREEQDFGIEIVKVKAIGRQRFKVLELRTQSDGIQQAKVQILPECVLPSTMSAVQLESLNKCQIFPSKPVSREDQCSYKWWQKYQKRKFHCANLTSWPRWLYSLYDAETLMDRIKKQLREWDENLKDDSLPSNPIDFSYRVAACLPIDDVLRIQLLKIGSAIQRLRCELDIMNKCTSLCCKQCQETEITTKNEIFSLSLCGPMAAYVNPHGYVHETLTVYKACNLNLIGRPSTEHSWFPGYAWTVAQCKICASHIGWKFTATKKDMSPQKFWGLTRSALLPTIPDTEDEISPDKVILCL
T1 sequence (Q16531 whole entry partner): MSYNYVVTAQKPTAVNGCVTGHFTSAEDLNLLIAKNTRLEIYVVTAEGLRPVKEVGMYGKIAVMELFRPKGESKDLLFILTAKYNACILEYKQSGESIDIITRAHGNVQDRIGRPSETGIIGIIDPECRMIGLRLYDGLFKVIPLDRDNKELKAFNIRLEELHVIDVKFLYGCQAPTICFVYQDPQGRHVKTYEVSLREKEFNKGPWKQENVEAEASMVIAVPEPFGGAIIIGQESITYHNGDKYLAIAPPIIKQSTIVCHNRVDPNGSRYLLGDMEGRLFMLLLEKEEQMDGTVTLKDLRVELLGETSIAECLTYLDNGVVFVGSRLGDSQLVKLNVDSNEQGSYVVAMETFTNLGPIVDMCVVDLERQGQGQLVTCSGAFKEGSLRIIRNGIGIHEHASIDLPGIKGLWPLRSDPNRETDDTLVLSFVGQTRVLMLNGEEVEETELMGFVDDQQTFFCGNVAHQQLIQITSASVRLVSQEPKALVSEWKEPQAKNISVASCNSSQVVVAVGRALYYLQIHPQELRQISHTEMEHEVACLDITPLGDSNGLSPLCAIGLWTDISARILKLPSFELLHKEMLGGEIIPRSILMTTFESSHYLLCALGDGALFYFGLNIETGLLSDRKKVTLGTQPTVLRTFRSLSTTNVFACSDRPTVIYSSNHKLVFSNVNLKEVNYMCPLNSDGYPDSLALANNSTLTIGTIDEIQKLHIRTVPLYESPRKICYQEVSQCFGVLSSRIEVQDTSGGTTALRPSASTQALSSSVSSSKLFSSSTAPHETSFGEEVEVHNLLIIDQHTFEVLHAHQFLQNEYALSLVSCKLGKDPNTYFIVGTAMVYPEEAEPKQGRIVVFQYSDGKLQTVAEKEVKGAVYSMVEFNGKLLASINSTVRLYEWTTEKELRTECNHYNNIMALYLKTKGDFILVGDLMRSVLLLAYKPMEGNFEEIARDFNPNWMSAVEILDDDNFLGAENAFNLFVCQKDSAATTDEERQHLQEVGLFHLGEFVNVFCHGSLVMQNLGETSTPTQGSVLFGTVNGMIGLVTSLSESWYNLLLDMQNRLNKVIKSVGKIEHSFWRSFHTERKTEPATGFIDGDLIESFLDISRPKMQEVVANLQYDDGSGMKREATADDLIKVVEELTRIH

Dmax [2] | SMILES | Dmax [1] | DC50
 | O=C1CCC(N2Cc3cc(C4(O)CCN(Cc5cccc(Oc6ccccc6)c5)CC4)ccc3C2=O)C(=O)N1 (centres unmarked) [Compound 193] | > 70% | < 10 nM
 | O=C1CCC(N2Cc3cc(C4(O)CCN(Cc5cccnc5Oc5ccccc5)CC4)ccc3C2=O)C(=O)N1 (centres unmarked) [Compound 195] | 50 to 70% | < 10 nM
 | O=C1CCC(N2Cc3cc(C4(O)CCN(Cc5ccnc(Nc6ccccc6)n5)CC4)ccc3C2=O)C(=O)N1 (centres unmarked) [Compound 196] | > 70% | < 10 nM
 | O=C1CCC(N2Cc3cc(C4(O)CCN(Cc5ccc(F)c(Nc6ccccc6)n5)CC4)ccc3C2=O)C(=O)N1 (centres unmarked) [Compound 197] | 50 to 70% | < 10 nM
 | O=C1CCC(N2Cc3cc(C4(O)CCN(Cc5ccnc(Nc6ccccc6)c5F)CC4)ccc3C2=O)C(=O)N1 (centres unmarked) [Compound 198] | > 70% | < 10 nM
 | O=C1CCC(N2Cc3cc(C4(O)CCN(Cc5ccc6c(c5)C(=O)N(c5ccccc5)C6)CC4)ccc3C2=O)C(=O)N1 (centres unmarked) [Compound 200, 3-(5-(4-hydroxy-1-((3-oxo-2-phenylisoindolin-5-yl)methyl)piperidin-4-yl)-1-oxoisoindolin-2-yl)piperidine-2,6-dione] | > 70% | < 10 nM
 | O=C1CCC(N2Cc3cc(C4(O)CCN(Cc5cccc6c5CCN(c5ccccn5)C6=O)CC4)ccc3C2=O)C(=O)N1 (centres unmarked) [Compound 202] | 50 to 70% | < 10 nM
 | O=C1CCC(N2Cc3cc(C4(O)CCN(Cc5ccc6ccccc6c5)CC4)ccc3C2=O)C(=O)N1 (centres unmarked) [Compound 203] | > 70% | < 10 nM
 | O=C1CCC(N2Cc3cc(C4(O)CCN(Cc5cccc6ccccc56)CC4)ccc3C2=O)C(=O)N1 (centres unmarked) [Compound 204] | > 70% | < 10 nM
 | O=C1CCC(N2Cc3cc(C4(O)CCN(Cc5cc(F)cc(F)c5)CC4)ccc3C2=O)C(=O)N1 (centres unmarked) [Compound 205] | > 70% | < 10 nM
 | O=C1CCC(N2Cc3cc(C4(O)CCN(Cc5ccc(-c6ccccc6)cc5)CC4)ccc3C2=O)C(=O)N1 (centres unmarked) [Compound 206] | > 70% | < 10 nM
 | O=C1CCC(N2Cc3cc(C4(O)CCN(Cc5cccc(Cl)c5)CC4)ccc3C2=O)C(=O)N1 (centres unmarked) [Compound 207] | > 70% | < 10 nM
 | O=C1CCC(N2Cc3cc(C4(O)CCN(Cc5cccc(OC(F)F)c5)CC4)ccc3C2=O)C(=O)N1 (centres unmarked) [Compound 208] | > 70% | < 10 nM
 | N#CC1(COc2ccccc2CN2CCC(O)(c3ccc4c(c3)CN(C3CCC(=O)NC3=O)C4=O)CC2)CC1 (centres unmarked) [Compound 209] | 50 to 70% | 10 to 30 nM
 | O=C1CCC(N2Cc3cc(C4(O)CCN(Cc5ccccc5)C4)ccc3C2=O)C(=O)N1 (centres unmarked) [Compound 210] | 30 to 50% | 30 to 150 nM
 | O=C1CCC(N2Cc3cc(C4CCN(Cc5ccccc5)C(CO)C4)ccc3C2=O)C(=O)N1 (centres unmarked) [Compound 212] | 50 to 70% | 30 to 150 nM
++ (“++” is from >50% to <70%) | O=C1CCC(N2Cc3cc(C4CCN(Cc5ccc6c(c5F)C(=O)N(c5ccccc5)C6)CC4)ccc3C2=O)C(=O)N1 (centres unmarked) [Compound 213] |  | 10 to 30 nM
 | Cc1ccccc1N1Cc2ccc(CN3CCC(c4ccc5c(c4)CN(C4CCC(=O)NC4=O)C5=O)CC3)cc2C1=O (centres unmarked) [Compound 214] | 50 to 70% | 10 to 30 nM
 | Cc1cccc(N2Cc3ccc(CN4CCC(c5ccc6c(c5)CN(C5CCC(=O)NC5=O)C6=O)CC4)cc3C2=O)c1 (centres unmarked) [Compound 215] | > 70% | 10 to 30 nM
 | Cc1ccc(N2Cc3ccc(CN4CCC(c5ccc6c(c5)CN(C5CCC(=O)NC5=O)C6=O)CC4)cc3C2=O)cc1 (centres unmarked) [Compound 216] | 50 to 70% | < 10 nM
 | O=C1CCC(N2Cc3cc(C4CCN(Cc5ccc6c(c5)C(=O)N(c5cccc(O)c5)C6)CC4)ccc3C2=O)C(=O)N1 (centres unmarked) [Compound 217] | > 70% | < 10 nM
 | O=C1CCC(N2Cc3cc(C4CCN(Cc5ccc6c(c5)C(=O)N(c5ccccc5O)C6)CC4)ccc3C2=O)C(=O)N1 (centres unmarked) [Compound 218] | > 70% | 10 to 30 nM
 | O=C1CCC(N2Cc3cc(C4(O)CCN(Cc5ccc6c(c5)C(=O)N(c5ccccc5O)C6)CC4)ccc3C2=O)C(=O)N1 (centres unmarked) [Compound 219] | > 70% | < 10 nM
 | O=C1CCC(N2Cc3cc(C4(O)CCN(Cc5ccc6c(c5)C(=O)N(c5ccccn5)C6)CC4)ccc3C2=O)C(=O)N1 (centres unmarked) [Compound 220] | > 70% | < 10 nM
 | O=C1CCC(N2Cc3cc(C4CCN(Cc5ccc6c(c5)C(=O)N(c5ncccc5F)C6)CC4)ccc3C2=O)C(=O)N1 (centres unmarked) [Compound 221] | 50 to 70% | < 10 nM
 | O=C1CCC(N2Cc3cc(C4CCN(Cc5ccc6c(c5)C(=O)N(c5cnsc5)C6)CC4)ccc3C2=O)C(=O)N1 (centres unmarked) [Compound 222] | 50 to 70% | < 10 nM

Dmax [2] | SMILES | Dmax [1] | DC50
 | O=C1CCC(N2Cc3cc(C4CCN(Cc5ccc6c(c5)C(=O)N(c5ccsn5)C6)CC4)ccc3C2=O)C(=O)N1 (centres unmarked) [Compound 223] | 50 to 70% | 10 to 30 nM
 | O=C1CCC(N2Cc3cc(C4CCN(Cc5ccc6c(c5)C(=O)N(c5ccns5)C6)CC4)ccc3C2=O)C(=O)N1 (centres unmarked) [Compound 224] | > 70% | < 10 nM
 | O=C1CCC(N2Cc3cc(C4(O)CCN(Cc5ccc6c(c5)C(=O)N(c5ccns5)C6)CC4)ccc3C2=O)C(=O)N1 (centres unmarked) [Compound 225] | > 70% | < 10 nM
 | O=C1CCC(N2Cc3cc(C4CCN(Cc5cccc(Nc6ncc(F)cn6)c5)CC4)ccc3C2=O)C(=O)N1 (centres unmarked) [Compound 226] | 30 to 50% | 10 to 30 nM
 | O=C1CCC(N2Cc3cc(C4CCN(Cc5cccc(Nc6ncc(Cl)cn6)c5)CC4)ccc3C2=O)C(=O)N1 (centres unmarked) [Compound 227] | 50 to 70% | < 10 nM
 | Cc1cnc(Nc2cccc(CN3CCC(c4ccc5c(c4)CN(C4CCC(=O)NC4=O)C5=O)CC3)c2)nc1 (centres unmarked) [Compound 228] | 50 to 70% | 10 to 30 nM
 | Cc1ccnc(Nc2cccc(CN3CCC(c4ccc5c(c4)CN(C4CCC(=O)NC4=O)C5=O)CC3)c2)n1 (centres unmarked) [Compound 229] | 50 to 70% | < 10 nM
 | O=C1CCC(N2Cc3cc(C4CCN(Cc5cccc(Nc6ncc(F)cn6)c5F)CC4)ccc3C2=O)C(=O)N1 (centres unmarked) [Compound 230] | 50 to 70% | 30 to 150 nM
 | Cc1ccnc(Nc2cccc(CN3CCC(c4ccc5c(c4)CN(C4CCC(=O)NC4=O)C5=O)CC3)c2F)n1 (centres unmarked) [Compound 231] | 50 to 70% | < 10 nM
 | CN(c1cccc(CN2CCC(c3ccc4c(c3)CN(C3CCC(=O)NC3=O)C4=O)CC2)c1)c1ncccn1 (centres unmarked) [Compound 232] | 50 to 70% | 10 to 30 nM
 | O=C1CCC(N2Cc3cc(C4CCN(Cc5cccc(Nc6ccsn6)c5)CC4)ccc3C2=O)C(=O)N1 (centres unmarked) [Compound 233] | 50 to 70% | 10 to 30 nM
+++ (“+++” is >70%) | O=C1CCC(N2Cc3cc(C4(O)CCN(Cc5ccc6ncn(-c7ccccc7)c(=O)c6c5)CC4)ccc3C2=O)C(=O)N1 (centres unmarked) [Compound 234] |  | < 10 nM
 | O=C1CCC(N2Cc3cc(C4(O)CCN(Cc5ccc6ncn(-c7ccccn7)c(=O)c6c5)CC4)ccc3C2=O)C(=O)N1 (centres unmarked) [Compound 235] | > 70% | < 10 nM
 | O=C1CCC(N2Cc3cc(C4(O)CCN(Cc5ccc6ccc(-c7ccccc7)nc6c5)CC4)ccc3C2=O)C(=O)N1 (centres unmarked) [Compound 236] | > 70% | < 10 nM
 | N#Cc1ccccc1CN1CCC(O)(c2ccc3c(c2)CN(C2CCC(=O)NC2=O)C3=O)CC1 (centres unmarked) [Compound 237] | 50 to 70% | < 10 nM
 | N#Cc1cccc(CN2CCC(O)(c3ccc4c(c3)CN(C3CCC(=O)NC3=O)C4=O)CC2)c1 (centres unmarked) [Compound 238] | > 70% | < 10 nM
 | N#Cc1ccc(CN2CCC(O)(c3ccc4c(c3)CN(C3CCC(=O)NC3=O)C4=O)CC2)cc1 (centres unmarked) [Compound 239] | > 70% | < 10 nM
 | O=C1CCC(N2Cc3cc(C4(O)CCN(Cc5cnc(-c6ccccc6)s5)CC4)ccc3C2=O)C(=O)N1 (centres unmarked) [Compound 240] | > 70% | < 10 nM
 | O=C1CCC(N2Cc3cc(C4(O)CCN(Cc5cccc6scnc56)CC4)ccc3C2=O)C(=O)N1 (centres unmarked) [Compound 241] | > 70% | < 10 nM
 | O=C1CCC(N2Cc3cc(C4(O)CCN(Cc5ccc6ncsc6c5)CC4)ccc3C2=O)C(=O)N1 (centres unmarked) [Compound 242] | > 70% | < 10 nM
 | O=C1CCC(N2Cc3cc(C4(O)CCN(Cc5cccc(F)c5F)CC4)ccc3C2=O)C(=O)N1 (centres unmarked) [Compound 243] | > 70% | < 10 nM
 | O=C1CCC(N2Cc3cc(C4(O)CCN(Cc5ccc(F)c(F)c5)CC4)ccc3C2=O)C(=O)N1 (centres unmarked) [Compound 244] | > 70% | < 10 nM
 | O=C1CCC(N2Cc3cc(C4(O)CCN(Cc5c(F)cccc5F)CC4)ccc3C2=O)C(=O)N1 (centres unmarked) [Compound 245] | 50 to 70% | < 10 nM
 | O=C1CCC(N2Cc3cc(C4(O)CCN(Cc5ccc6c(c5)CCO6)CC4)ccc3C2=O)C(=O)N1 (centres unmarked) [Compound 246] | > 70% | < 10 nM
 | O=C1CCC(N2Cc3cc(C4(O)CCN(Cc5ccc(OC(F)F)cc5)CC4)ccc3C2=O)C(=O)N1 (centres unmarked) [Compound 247] | > 70% | < 10 nM
 | O=C1CCC(N2Cc3cc(C4(O)CCN(Cc5ccccc5OC(F)F)CC4)ccc3C2=O)C(=O)N1 (centres unmarked) [Compound 248] | > 70% | < 10 nM

From patent US20230002397A1, “SMALL MOLECULE DEGRADERS OF HELIOS AND METODS OF USE” (DANA-FARBER CANCER INSTITUTE, INC., priority 2019, published 2023)
